Usually IC50 stands for the point on the concentration scale where inhibition reaches its midpoint. Broadly, the EC50 is the concentration needed to bring the measured effect to its halfway point. A higher EC50 goes with a need for much substance. One may read the Emax as the size of the effect at its maximum, as opposed to the concentration needed.

For assay [1], the system named is BV-2. Briefly: Inhibition of NO production in LPS-induced mouse BV-2 cells incubated for 24 hrs by Griess reagent based microplate reader analysis. Format: functional, cell-based. The settings on record: BV-2, 24 h. On the technique in general: Nitrite, measured by Griess reagent, commonly stands in for NO production.
In assay [2] the target is 5-hydroxytryptamine receptor 7 (Homo sapiens, UniProt P34969). Kind of assay: Inverse agonist activity at 5-HT7 (unknown origin). Format: functional.
The target in assay [3] is 5-hydroxytryptamine receptor 2A (Homo sapiens, UniProt P28223). Kind of assay: Inverse agonist activity at 5-HT2A (unknown origin). Format: functional.
In assay [4] the target is T1, 5-hydroxytryptamine receptor 2C (Homo sapiens, UniProt P28335).
T1 sequence (P28335 whole entry): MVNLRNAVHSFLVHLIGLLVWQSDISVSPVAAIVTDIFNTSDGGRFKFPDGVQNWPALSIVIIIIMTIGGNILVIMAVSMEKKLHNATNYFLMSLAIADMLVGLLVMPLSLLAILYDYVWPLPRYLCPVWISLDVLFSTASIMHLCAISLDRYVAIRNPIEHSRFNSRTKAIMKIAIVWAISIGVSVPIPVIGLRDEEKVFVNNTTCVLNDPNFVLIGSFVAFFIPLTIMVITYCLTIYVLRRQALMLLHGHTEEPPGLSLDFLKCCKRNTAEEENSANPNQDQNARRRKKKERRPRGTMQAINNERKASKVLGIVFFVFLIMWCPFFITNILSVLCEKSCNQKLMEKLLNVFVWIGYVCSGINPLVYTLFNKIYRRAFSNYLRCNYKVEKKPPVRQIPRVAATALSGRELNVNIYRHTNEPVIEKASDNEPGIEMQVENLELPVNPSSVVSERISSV
Briefly: Antagonist activity at 5-HT2C (unknown origin). Format: functional.

The target of assay [5] is T2, D(2) dopamine receptor (Homo sapiens, UniProt P14416). Kind of assay: Partial agonist activity at D2R (unknown origin) expressed in HEK293 cells relative to control. Format: functional, cell-based. The settings on record: filed as partial agonist.
Assay [6] concerns the target Acetylcholinesterase (Electrophorus electricus, UniProt O42275). Kind of assay: Inhibition of Electrophorus electricus AChE using ATCI as substrate pre-incubated for 10 mins followed by substrate addition measured after 5 mins by microplate reader analysis.
Assay [7] addresses Cholinesterase (Equus caballus, UniProt P81908). Briefly: Inhibition of equine serum BuChE using BTCI as substrate pre-incubated for 10 mins followed by substrate addition measured after 5 mins by microplate reader analysis.
Assay [8] deals with SH-SY5Y. Kind of assay: Neuroprotective activity against human SH-SY5Y cells assessed as increase in BDNF level measured after 48 hrs. Format: functional, cell-based.
Assay [9] concerns BV-2. Briefly: Potency index, ratio of minocycline IC50 to test compound IC50 for inhibition of NO production in LPS-induced mouse BV-2 cells incubated for 24 hrs by Griess reagent based microplate reader analysis. Format: functional.
Assay [10] addresses T1, 5-hydroxytryptamine receptor 2C. Kind of assay: Partial agonist activity at human 5-HT2C stably transfected in HEK293T cells measured after 18 to 24 hrs by FLIPR assay. Format: functional, cell-based.
Assay [11] deals with D(1A) dopamine receptor (Homo sapiens, UniProt P21728). Briefly: Antagonist activity at D1R (unknown origin) transfected in HEK293 cells by FLIPR assay.
For assay [12], the target named is T2, D(2) dopamine receptor. Kind of assay: Antagonist activity at D2R (unknown origin). Format: functional.
The target of assay [13] is T1, 5-hydroxytryptamine receptor 2C. Kind of assay: Agonist activity at 5-HT2C (unknown origin). Format: functional.
Assay [14] deals with T3, 5-hydroxytryptamine receptor 2C (Homo sapiens) (UniProt P28335).
T3 sequence (whole entry): T1 sequence (P28335 whole entry)
Kind of assay: Agonist activity at 5-HT2C (unknown origin) relative to control. Format: functional. The settings on record: filed as agonist.

Assay [15] has as its system SH-SY5Y. Kind of assay: Neuroprotective activity against human SH-SY5Y cells assessed as increase in BDNF level at 20 uM measured after 48 hrs relative to control. Format: functional.

Chain of Acetylcholinesterase (O42275 whole entry): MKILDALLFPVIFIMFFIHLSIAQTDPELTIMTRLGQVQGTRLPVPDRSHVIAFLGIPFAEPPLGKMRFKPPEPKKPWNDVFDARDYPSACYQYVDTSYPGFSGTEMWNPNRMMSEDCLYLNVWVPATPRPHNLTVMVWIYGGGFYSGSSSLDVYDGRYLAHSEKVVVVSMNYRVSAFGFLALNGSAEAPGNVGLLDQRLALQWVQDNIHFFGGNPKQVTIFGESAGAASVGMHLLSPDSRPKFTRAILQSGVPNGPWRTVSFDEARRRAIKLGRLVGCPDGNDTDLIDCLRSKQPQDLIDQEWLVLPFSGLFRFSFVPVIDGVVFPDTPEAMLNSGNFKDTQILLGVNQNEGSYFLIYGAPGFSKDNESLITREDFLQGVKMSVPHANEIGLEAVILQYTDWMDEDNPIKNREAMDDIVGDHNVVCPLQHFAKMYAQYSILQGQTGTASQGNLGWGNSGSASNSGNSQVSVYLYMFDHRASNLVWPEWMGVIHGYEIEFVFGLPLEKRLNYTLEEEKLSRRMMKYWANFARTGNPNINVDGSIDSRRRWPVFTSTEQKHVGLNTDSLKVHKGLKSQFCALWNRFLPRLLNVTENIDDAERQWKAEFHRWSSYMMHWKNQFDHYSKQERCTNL
Chain of Cholinesterase (P81908 whole entry): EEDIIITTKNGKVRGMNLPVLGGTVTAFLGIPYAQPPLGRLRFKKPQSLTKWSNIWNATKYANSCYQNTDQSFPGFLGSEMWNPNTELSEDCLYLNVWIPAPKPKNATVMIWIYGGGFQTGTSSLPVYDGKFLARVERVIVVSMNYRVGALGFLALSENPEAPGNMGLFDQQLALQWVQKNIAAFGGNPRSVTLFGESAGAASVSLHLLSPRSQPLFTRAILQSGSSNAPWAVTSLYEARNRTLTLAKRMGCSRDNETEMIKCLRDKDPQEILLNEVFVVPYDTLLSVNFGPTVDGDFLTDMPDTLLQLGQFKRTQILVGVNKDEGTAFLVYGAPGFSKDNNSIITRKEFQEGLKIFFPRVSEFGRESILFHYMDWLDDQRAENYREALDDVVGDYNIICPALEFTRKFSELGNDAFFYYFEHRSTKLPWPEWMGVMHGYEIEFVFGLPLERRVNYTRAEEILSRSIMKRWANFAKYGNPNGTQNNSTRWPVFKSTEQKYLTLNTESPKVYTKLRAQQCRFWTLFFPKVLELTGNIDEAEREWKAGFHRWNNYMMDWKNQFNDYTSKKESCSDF
T2 sequence (P14416 whole entry): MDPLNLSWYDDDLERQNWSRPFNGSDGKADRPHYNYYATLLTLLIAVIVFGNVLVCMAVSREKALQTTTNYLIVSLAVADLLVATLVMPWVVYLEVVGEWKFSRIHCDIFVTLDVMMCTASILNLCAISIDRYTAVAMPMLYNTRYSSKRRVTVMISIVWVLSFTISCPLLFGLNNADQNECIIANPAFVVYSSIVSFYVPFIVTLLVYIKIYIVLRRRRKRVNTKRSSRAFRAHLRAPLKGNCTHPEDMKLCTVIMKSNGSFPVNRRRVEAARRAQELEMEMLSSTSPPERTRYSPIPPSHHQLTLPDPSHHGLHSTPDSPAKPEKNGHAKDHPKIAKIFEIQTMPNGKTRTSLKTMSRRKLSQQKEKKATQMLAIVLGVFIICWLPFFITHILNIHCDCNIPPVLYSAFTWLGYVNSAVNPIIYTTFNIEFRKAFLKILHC
Chain of D(1A) dopamine receptor (P21728 whole entry): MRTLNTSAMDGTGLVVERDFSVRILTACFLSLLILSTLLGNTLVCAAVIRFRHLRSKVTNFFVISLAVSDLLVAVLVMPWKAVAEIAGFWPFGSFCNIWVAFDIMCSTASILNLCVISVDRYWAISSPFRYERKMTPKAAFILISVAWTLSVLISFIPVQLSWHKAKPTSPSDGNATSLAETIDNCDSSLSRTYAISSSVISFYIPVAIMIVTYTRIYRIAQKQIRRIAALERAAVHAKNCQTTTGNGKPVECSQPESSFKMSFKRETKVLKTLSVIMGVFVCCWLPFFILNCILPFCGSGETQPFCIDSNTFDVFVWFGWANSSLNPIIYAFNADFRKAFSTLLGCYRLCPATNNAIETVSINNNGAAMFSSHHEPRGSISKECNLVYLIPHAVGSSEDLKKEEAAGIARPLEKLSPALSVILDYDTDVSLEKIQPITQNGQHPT
Chain of 5-hydroxytryptamine receptor 7 (P34969 whole entry): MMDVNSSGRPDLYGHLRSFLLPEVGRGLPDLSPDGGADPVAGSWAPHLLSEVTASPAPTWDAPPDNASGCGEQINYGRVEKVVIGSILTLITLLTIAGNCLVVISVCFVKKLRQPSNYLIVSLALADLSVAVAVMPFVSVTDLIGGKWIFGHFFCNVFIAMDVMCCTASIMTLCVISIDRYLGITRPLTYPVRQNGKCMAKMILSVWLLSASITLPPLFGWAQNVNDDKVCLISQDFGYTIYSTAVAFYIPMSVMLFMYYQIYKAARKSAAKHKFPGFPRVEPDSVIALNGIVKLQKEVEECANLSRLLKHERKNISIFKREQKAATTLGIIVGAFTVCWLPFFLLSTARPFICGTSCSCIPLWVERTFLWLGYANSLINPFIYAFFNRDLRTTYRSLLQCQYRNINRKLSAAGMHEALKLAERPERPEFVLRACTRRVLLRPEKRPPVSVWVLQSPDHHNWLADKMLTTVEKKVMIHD
Chain of 5-hydroxytryptamine receptor 2A (P28223 whole entry): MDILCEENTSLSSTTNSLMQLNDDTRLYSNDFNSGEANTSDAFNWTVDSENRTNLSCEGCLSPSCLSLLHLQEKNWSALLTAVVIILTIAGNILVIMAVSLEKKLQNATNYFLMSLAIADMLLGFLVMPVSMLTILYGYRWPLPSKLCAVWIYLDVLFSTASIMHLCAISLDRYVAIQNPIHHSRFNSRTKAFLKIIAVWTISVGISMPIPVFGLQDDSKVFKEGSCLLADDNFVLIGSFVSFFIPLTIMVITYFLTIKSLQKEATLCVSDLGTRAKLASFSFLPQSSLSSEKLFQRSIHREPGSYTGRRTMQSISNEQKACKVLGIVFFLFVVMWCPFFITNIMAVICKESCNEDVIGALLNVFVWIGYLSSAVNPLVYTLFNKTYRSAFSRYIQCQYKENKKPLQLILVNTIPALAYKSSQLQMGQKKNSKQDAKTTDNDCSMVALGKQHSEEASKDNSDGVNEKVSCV

In turn, `CN(C)c1ccc(O)c2c1C[C@H]1C[C@H]3[C@H](N(C)C)C(O)=C(C(N)=O)C(=O)[C@@]3(O)C(O)=C1C2=O` [MINOCYCLINE] had an IC50 in assay [1] of 15.5 µM.
For `COc1cc2c3c(c1OC)-c1ccccc1CC3N(C)CC2` (stereo not drawn) [(+/-)-NUCIFERINE], a half-maximal response in [2] (EC50) required 0.15 µM. In addition, the IC50 in assay [3] was found to be 0.478 µM; in assay [4] it was 0.131 µM. The compound further had a maximum response (Emax) in assay [5] of 67%.
Turning to `COc1ccc2c(c1OC)C[C@@H]1c3c(cc4c(c3-2)OCO4)CCN1C`, the IC50 was found to be 10.5 µM in [6], 17.4 µM in [7], 5.26 µM in [1] and 5.26 µM in assay [8]. In assay [9], the “Ratio IC50” value is 3.
Consider `COc1ccc2c(c1)cc1c3c(cc4c(c32)OCO4)CCN1C`, for which the IC50 in assay [1] came out at 31.6 µM.
In assay [10], `COc1c(O)cc2c3c1-c1ccccc1C[C@H]3NCC2` [(-)-ASIMILOBINE] gave a half-maximal effective concentration (EC50) of 0.653 µM. For the same compound, the half-inhibitory concentration (IC50) in assay [6] was found to be 141 µM; in [7] it was 10.1 µM; in assay [11] it was 7.2 µM.
For `CN1CCc2cc3c(c4c2c1cc1ccccc14)OCO3` [DEHYDROROEMERINE], the half-maximal inhibitory concentration (IC50) in assay [6] was 1.21 µM; in [7] it was 3.34 µM; in assay [1], 1.3 µM.
Compound `COc1cc2c3c(c1OC)-c1cc(O)ccc1C[C@H]3NCC2` registered an IC50 in [12] of 5.2 µM.
In turn, `Oc1cc2c3c(c1Cl)-c1ccccc1C[C@H]3NCC2` showed an EC50 in [13] of 0.304 µM. In assay [14], this compound registered an Emax of 41.6%.
The matching figures for `Oc1cc2c3c(c1Cl)-c1ccccc1C[C@@H]3NCC2`: 0.0079 µM and 89.8%.
As for `COc1ccc2c(c1OC)[C@@H](O)[C@@H]1c3c(cc4c(c3-2)OCO4)CCN1C`, the values for the IC50 in [6] and in [7] were 4.3 µM and 22.5 µM, respectively.
In assay [1], `COc1c(O)ccc2c1cc1c3c(cc4c(c32)OCO4)CCN1C` returned an IC50 of 39.2 µM.
For `CN1CCc2cc3c(c4c2[C@H]1Cc1ccccc1-4)OCO3`, the IC50 in [6] was 8.32 µM; in [7] it was 2.8 µM; in [12] it was 18.8 µM. Also, the Activity in [15] is reported as 73%.
For the compound `CN1CCc2cc3c(c4c2[C@H]1[C@H](O)c1ccccc1-4)OCO3`, the half-inhibitory concentration (IC50) is 17.6 µM in assay [6] and 7.42 µM in assay [7].

Values taken from ChEMBL document CHEMBL5370537, “Aporphines: A privileged scaffold in CNS drug discovery” (Eur J Med Chem, 2023).
